Earlier results on two compounds are cited in patent US20240316057A1 (priority 2021, published 2024).

The conditions of data set [1]: as known to the skilled person.

Regarding `Cn1c(=O)c2c(ncn2C)n(C)c1=O` [Caffeine, 1,3,7-trimethylxanthine], in data set [1], the “efficacious plasma concentration range” value is 5 to 20 µM.

Turning to `Cn1cnc2c1c(=O)[nH]c(=O)n2C` [Theobromine, 3,7-dimethylxanthine], the solubility in water result was “very slightly water-soluble”.
